Assay results published in PubChem BioAssay AID248 (DTP/NCI, 2004).
“And” between values parts separate entries of the source, which are not always exact repeats. Identical values can stand only once. Toxic doses and inconclusive results are not listed. Cut-off read from the data, not from the text of the source: active = T/C of 150% or more; inactive = T/C below 125%.

Tested on: L1210 leukemia ip in BDF1 mice, survival T/C
Assay: NCI In Vivo Anticancer Drug Screen. Data for tumor model L1210 Leukemia (intraperitoneal) in B6D2F1 (BDF1) mice
Details: endpoint: mean survival time, higher = longer survival
Outline: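 Each compound was tested against a transplantable tumor grown in mice. The endpoint was survival, with treated animals benchmarked against vehicle controls as a simple ratio.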

[1] = dose: 100.0 mg/kg/injection, schedule: Q04DX003 (ip), vehicle: saline with Tween-80
[2] = dose: 200.0 mg/kg/injection, schedule: Q04DX003 (ip), vehicle: saline with Tween-80
[3] = dose: 400.0 mg/kg/injection, schedule: Q04DX003 (ip), vehicle: saline with Tween-80
[4] = dose: 100.0 mg/kg/injection, schedule: Q01DX001 (ip), vehicle: carboxymethylcellulose (CMC)
[5] = dose: 200.0 mg/kg/injection, schedule: Q01DX001 (ip), vehicle: carboxymethylcellulose (CMC)
[6] = dose: 400.0 mg/kg/injection, schedule: Q01DX001 (ip), vehicle: carboxymethylcellulose (CMC)
[7] = dose: 50.0 mg/kg/injection, schedule: Q01DX001 (ip), vehicle: carboxymethylcellulose (CMC)
[8] = dose: 100.0 mg/kg/injection, schedule: Q01DX009 (ip), vehicle: saline with Tween-80
[9] = dose: 200.0 mg/kg/injection, schedule: Q01DX009 (ip), vehicle: saline with Tween-80
[10] = dose: 400.0 mg/kg/injection, schedule: Q01DX009 (ip), vehicle: saline with Tween-80
[11] = dose: 100.0 mg/kg/injection, schedule: Q01DX001 (ip), vehicle: saline
[12] = dose: 200.0 mg/kg/injection, schedule: Q01DX001 (ip), vehicle: saline
[13] = dose: 400.0 mg/kg/injection, schedule: Q01DX001 (ip), vehicle: saline

Measured: T/C

C=CC1CC=CCC1 (stereo not drawn)
inactive: [1] 98 % of control | [2] 97 % of control | [3] 102 % of control

C(=C\c1ccccc1)/Cc1ccccc1
inactive: dose: 100.0 mg/kg/injection, schedule: Q01DX009 (ip), vehicle: Klucel (hydroxypropylcellulose) (HPC) 97 % of control | dose: 100.0 mg/kg/injection, schedule: Q04DX003 (ip), vehicle: Klucel (hydroxypropylcellulose) (HPC) 101 % of control | dose: 200.0 mg/kg/injection, schedule: Q01DX009 (ip), vehicle: Klucel (hydroxypropylcellulose) (HPC) 95 % of control | dose: 200.0 mg/kg/injection, schedule: Q04DX003 (ip), vehicle: Klucel (hydroxypropylcellulose) (HPC) 111 % of control | dose: 400.0 mg/kg/injection, schedule: Q01DX009 (ip), vehicle: Klucel (hydroxypropylcellulose) (HPC) 103 % of control | dose: 400.0 mg/kg/injection, schedule: Q04DX003 (ip), vehicle: Klucel (hydroxypropylcellulose) (HPC) 92 % of control

O=C(NCCCCCCCCCCNC(=O)Nc1ccc(C2=NCC(O)CN2)cc1)Nc1ccc(C2=NCC(O)CN2)cc1 (stereo not drawn)
inactive: dose: 4.0 mg/kg/injection, schedule: Q01DX Z (ip), vehicle: water 117 % of control | dose: 8.0 mg/kg/injection, schedule: Q01DX Z (ip), vehicle: water 112 % of control | dose: 16.0 mg/kg/injection, schedule: Q01DX Z (ip), vehicle: water 106 % of control

CSc1nc2c(n1-c1ccccc1)C(=O)C(OS(=O)(=O)c1ccccc1)C(=O)N2 (stereo not drawn)
inactive: dose: 75.0 mg/kg/injection, schedule: Q01DX001 (ip), vehicle: saline with Tween-80 95 % of control | dose: 150.0 mg/kg/injection, schedule: Q01DX001 (ip), vehicle: saline with Tween-80 98 % of control | dose: 300.0 mg/kg/injection, schedule: Q01DX001 (ip), vehicle: saline with Tween-80 98 % of control

S=P(NCCCCCCCNP(=S)(N1CC1)N1CC1)(N1CC1)N1CC1
inactive: [4] 106 % of control | [5] 98 % of control | [6] 104 % of control

CN(C)C/C(=C\c1ccccc1)C(=O)c1ccccc1
inactive: dose: 100.0 mg/kg/injection, schedule: Q04DX003 (ip), vehicle: other 98 % of control

CSc1ncnc2c1ncn2C1CCCC1
inactive: [7] 116 % of control | [4] 104 % of control | [5] 107 % of control

NC(=O)N/N=C(/c1ccccc1)c1ccccn1
inactive: [8] 101 % of control | [9] 100 % of control | [10] 101 % of control

O=c1ccc2cccc(O)c2[nH]1
inactive: [11] 97 % of control | [12] 94 % of control | [13] 100 % of control

CCC(=O)c1ccccc1N
inactive: [8] 97 % of control | [9] 105 % of control | [10] 92 % of control

CN(C)c1ccc(/C=C2\CC(C)(C)c3ccccc3C2=O)cc1
inactive: dose: 100.0 mg/kg/injection, schedule: Q04DX003 (ip), vehicle: saline sonified 103 % of control | dose: 200.0 mg/kg/injection, schedule: Q04DX003 (ip), vehicle: saline sonified 97 % of control | dose: 400.0 mg/kg/injection, schedule: Q04DX003 (ip), vehicle: saline sonified 103 % of control

CCN(CCCl)CCNc1c2ccccc2nc2c1ccc1ccccc12
inactive: dose: 1.25 mg/kg/injection, schedule: Q01DX005 (ip), vehicle: saline 116 % of control | dose: 2.5 mg/kg/injection, schedule: Q01DX005 (ip), vehicle: saline 115 % of control | dose: 5.0 mg/kg/injection, schedule: Q01DX005 (ip), vehicle: saline 107 % of control

C=CC1CCN(CCn2cnc3c(N)ncnc32)CC1
inactive: [1] 97 % of control | [2] 103 % of control | [3] 97 % of control

CCCC(C)CCCNCCOC(=O)c1cccc(N)c1 (stereo not drawn)
inactive: dose: 75.0 mg/kg/injection, schedule: Q01DX001 (ip), vehicle: other 97 % of control | dose: 150.0 mg/kg/injection, schedule: Q01DX001 (ip), vehicle: other 94 % of control

C=CCSc1ccc([N+](=O)[O-])cc1
inactive: [7] 101 % of control | [4] 95 % of control | [5] 104 % of control | [6] 98 % of control

NNc1cccc(C(F)(F)F)c1
inactive: dose: 25.0 mg/kg/injection, schedule: Q01DX009 (ip), vehicle: saline with Tween-80 94 % of control | dose: 25.0 mg/kg/injection, schedule: Q04DX003 (ip), vehicle: saline with Tween-80 100 % of control | dose: 50.0 mg/kg/injection, schedule: Q01DX009 (ip), vehicle: saline with Tween-80 96 % of control | dose: 50.0 mg/kg/injection, schedule: Q04DX003 (ip), vehicle: saline with Tween-80 95 % of control | [1] 95 % of control and 98 % of control

N#CC(c1ccccc1)C(O)(c1ccccc1)c1ccccc1 (stereo not drawn)
inactive: dose: 50.0 mg/kg/injection, schedule: Q01DX001 (ip), vehicle: saline 98 % of control | [11] 98 % of control | [12] 93 % of control | [13] 91 % of control

O=C(Nc1ccc(F)cc1)c1ccc(Cl)cc1Cl
inactive: [11] 93 % of control | dose: 100.0 mg/kg/injection, schedule: Q04DX003 (ip), vehicle: saline 97 % of control | [12] 95 % of control | dose: 200.0 mg/kg/injection, schedule: Q04DX003 (ip), vehicle: saline 107 % of control | [13] 88 % of control | dose: 400.0 mg/kg/injection, schedule: Q04DX003 (ip), vehicle: saline 100 % of control

NC(=O)c1ccccc1OCc1ccccc1
inactive: dose: 75.0 mg/kg/injection, schedule: Q04DX003 (ip), vehicle: Klucel (hydroxypropylcellulose) (HPC) 97 % of control | dose: 150.0 mg/kg/injection, schedule: Q04DX003 (ip), vehicle: Klucel (hydroxypropylcellulose) (HPC) 99 % of control | dose: 300.0 mg/kg/injection, schedule: Q04DX003 (ip), vehicle: Klucel (hydroxypropylcellulose) (HPC) 91 % of control

Fc1cc(N(CCCl)CCCl)ccc1C1N(Cc2ccc(N(CCCl)CCCl)cc2Cl)CCCN1Cc1ccc(N(CCCl)CCCl)cc1Cl
inactive: [7] 96 % of control | [4] 105 % of control | [5] 96 % of control | [6] 100 % of control
